≈ marks a conversion by molar mass, not a printed value. Read-outs that look alike come from different tables or passages of the source.
Assays:
[1] = test system: Escherichia coli ATCC 25922; test: Microtitre broth dilution MIC, Escherichia coli; type: cell-based; conditions: ATCC25922, read-out: MIC, EC
[2] = test system: MCF7 human breast cancer cell line; test: MTT cytotoxicity, MCF7; type: cell-based; conditions: MCF7, 48 h, read-out: Anticancer activity IC50, MCF7
[3] = test system: methicillin-susceptible strains of Staphylococcus aureus ATCC 29213; test: Microtitre broth dilution MIC, MSSA; type: cell-based; conditions: ATCC29213|MSSA, read-out: MIC, MSSA
[4] = test system: Aspergillus niger ATCC 16404; test: microbe, parasite or virus in culture; type: cell-based
[5] = test system: Streptococcus faecalis ATCC 29212; test: Microtitre broth dilution MIC, Streptococcus faecalis; type: cell-based; conditions: Enterococcus faecalis, ATCC29212, read-out: MIC, SF
[6] = test system: methicillin-resistant strains of Staphylococcus aureus ATCC 43300; test: Microtitre broth dilution MIC, MRSA; type: cell-based; conditions: ATCC43300|MRSA, read-out: MIC, MRSA
[7] = test system: HepG2 human hepatocyte carcinoma cell line; test: MTT cytotoxicity, HepG2; type: cell-based; conditions: HepG2, 48 h, read-out: Anticancer activity IC50, HepG2
[8] = test system: Salmonella enterica ATCC 10428; test: Microtitre broth dilution MIC, Salmonella enterica; type: cell-based; conditions: ATCC10428, read-out: MIC, SE
[9] = test system: H69PR human small cell lung cancer cell line; test: MTT cytotoxicity, H69PR; type: cell-based; conditions: 48 h, read-out: Anticancer activity IC50, H69PR
[10] = test system: Pseudomonas aeruginosa ATCC 27853; test: Microtitre broth dilution MIC, Pseudomonas aeruginosa; type: cell-based; conditions: ATCC27853, read-out: MIC, PA
[11] = test system: Candida albicans ATCC 10321; test: microbe, parasite or virus in culture; type: cell-based
[12] = test system: C26 colon carcinoma cell line; test: MTT cytotoxicity, C26; type: cell-based; conditions: 48 h, read-out: Anticancer activity IC50, C26
[13] = test system: bacterial strains (EC, PA, SF, SE, MSSA, MRSA) and fungi (CA, AN); test: Microtitre broth dilution MIC, stated over several strains; type: cell-based
[14] = biological target: T1, DHFR (Homo sapiens, UniProt P00374); test: In vitro dihydrofolate reductase inhibition assay; type: biochemical; conditions: IC50 DHFR inhibitory activity, IC50 ± SEM
T1 sequence (P00374 1-187): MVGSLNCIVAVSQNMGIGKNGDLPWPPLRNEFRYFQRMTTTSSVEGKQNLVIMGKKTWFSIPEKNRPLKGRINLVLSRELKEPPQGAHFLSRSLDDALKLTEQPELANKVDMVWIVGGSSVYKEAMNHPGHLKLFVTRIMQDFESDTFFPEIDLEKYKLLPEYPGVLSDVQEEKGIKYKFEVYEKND

[15] = biological target: VEGFR-2 (Homo sapiens, UniProt P35968); test: In vitro VEGFR-2 kinase inhibition assay; type: biochemical; conditions: for IC50: IC50 VEGFR-2 inhibitory activity, IC50 ± SEM; for inhibitory activity on VEGFR-2 relative to DHFR: times better on the VEGFR-2 receptor than the DHFR receptor
VEGFR-2, sequence (P35968 20-1356): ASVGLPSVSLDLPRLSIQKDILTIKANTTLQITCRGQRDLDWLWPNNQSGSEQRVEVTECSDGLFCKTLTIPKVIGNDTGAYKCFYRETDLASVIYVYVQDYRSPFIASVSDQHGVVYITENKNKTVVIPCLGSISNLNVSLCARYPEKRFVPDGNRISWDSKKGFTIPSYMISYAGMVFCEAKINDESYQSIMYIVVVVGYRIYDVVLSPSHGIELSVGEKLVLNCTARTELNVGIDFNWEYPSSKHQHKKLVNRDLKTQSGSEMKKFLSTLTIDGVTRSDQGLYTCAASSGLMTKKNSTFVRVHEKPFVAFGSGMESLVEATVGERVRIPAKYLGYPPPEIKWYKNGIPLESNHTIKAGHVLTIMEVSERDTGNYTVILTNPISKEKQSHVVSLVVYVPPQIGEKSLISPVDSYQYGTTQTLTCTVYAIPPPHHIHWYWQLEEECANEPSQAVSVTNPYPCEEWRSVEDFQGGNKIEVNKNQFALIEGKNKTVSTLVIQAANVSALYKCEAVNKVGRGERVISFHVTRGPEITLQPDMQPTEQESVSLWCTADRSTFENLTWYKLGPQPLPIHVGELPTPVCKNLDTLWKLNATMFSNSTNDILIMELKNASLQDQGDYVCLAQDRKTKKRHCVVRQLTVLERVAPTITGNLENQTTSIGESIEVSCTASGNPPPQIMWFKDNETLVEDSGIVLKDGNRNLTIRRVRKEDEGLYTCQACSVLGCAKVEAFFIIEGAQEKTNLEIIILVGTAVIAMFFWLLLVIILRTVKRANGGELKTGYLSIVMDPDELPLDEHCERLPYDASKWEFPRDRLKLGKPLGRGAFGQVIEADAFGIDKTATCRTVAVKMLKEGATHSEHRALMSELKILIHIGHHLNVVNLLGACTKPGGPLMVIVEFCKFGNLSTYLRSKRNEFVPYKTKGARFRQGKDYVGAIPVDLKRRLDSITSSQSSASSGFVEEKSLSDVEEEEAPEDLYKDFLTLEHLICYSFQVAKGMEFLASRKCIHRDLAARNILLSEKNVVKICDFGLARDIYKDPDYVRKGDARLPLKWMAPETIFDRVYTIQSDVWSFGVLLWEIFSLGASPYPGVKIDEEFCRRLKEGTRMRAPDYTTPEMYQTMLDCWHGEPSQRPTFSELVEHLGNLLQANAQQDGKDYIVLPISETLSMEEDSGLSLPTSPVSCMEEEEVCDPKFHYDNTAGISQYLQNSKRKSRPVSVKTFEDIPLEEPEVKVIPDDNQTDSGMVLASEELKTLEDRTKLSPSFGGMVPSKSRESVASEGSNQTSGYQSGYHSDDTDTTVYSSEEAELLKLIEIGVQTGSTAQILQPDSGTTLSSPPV

[16] = test system: Candida albicans, Candida glabrata, Candida krusei, and Candida tropicalis; conditions: cited from earlier work
[17] = test system: drug-resistant fungi; conditions: ref [17]; cited from earlier work

Compound	MIC [1]	IC50 [2]	MIC [3]	MIC ([4]; ATCC16404, read-out: MIC, AN)	MIC [5]	MIC [6]	IC50 [7]	MIC [8]	IC50 [9]	MIC [10]	MIC ([11]; ATCC10321, read-out: MIC, CA)	IC50 [12]	other results
COc1cc(OC)c2cc(C(=O)NCCCN3CCOCC3)cc(O)c2c1 [4a, 4-Hydroxy-6,8-dimethoxy-N-(3-morpholinopropyl)-2-naphthamide]	128 µg/mL (≈ 342 µM)	16.1 ± 2.42 µM	64 µg/mL (≈ 171 µM)	256 µg/mL (≈ 684 µM)	128 µg/mL (≈ 342 µM)	256 µg/mL (≈ 684 µM)	14.5 ± 2.02 µM	64 µg/mL (≈ 171 µM)	52.2 ± 4.81 µM	128 µg/mL (≈ 342 µM)	128 µg/mL (≈ 342 µM)	23.8 ± 2.93 µM	
COc1cc(OC)c2c(O)cc(C(=O)NCCCN3CCOCC3)cc2c1 [4b, 4-Hydroxy-5,7-dimethoxy-N-(3-morpholinopropyl)-2-naphthamide]	128 µg/mL (≈ 342 µM)	18.6 ± 1.84 µM	64 µg/mL (≈ 171 µM)	256 µg/mL (≈ 684 µM)	128 µg/mL (≈ 342 µM)	256 µg/mL (≈ 684 µM)	17.8 ± 2.46 µM	64 µg/mL (≈ 171 µM)	53.7 ± 3.55 µM	128 µg/mL (≈ 342 µM)	64 µg/mL (≈ 171 µM)	25.1 ± 3.23 µM	
COc1cc(OC)c2cc(C(=O)NCc3ccc(C)cc3)cc(O)c2c1 [5a, 4-Hydroxy-6,8-dimethoxy-N-(4-methylbenzyl)-2-naphthamide]	64 µg/mL (≈ 182 µM)	10.3 ± 2.11 µM		256 µg/mL (≈ 729 µM)	64 µg/mL (≈ 182 µM)	128 µg/mL (≈ 364 µM)	13.6 ± 1.37 µM	64 µg/mL (≈ 182 µM)	34.2 ± 5.64 µM	64 µg/mL (≈ 182 µM)	128 µg/mL (≈ 364 µM)	9.21 ± 2.3 µM	
COc1cc(OC)c2c(O)cc(C(=O)NCc3ccc(C)cc3)cc2c1 [5b, 4-Hydroxy-5,7-dimethoxy-N-(4-methylbenzyl)-2-naphthamide]	64 µg/mL (≈ 182 µM)	6.75 ± 1.95 µM	16 µg/mL (≈ 45.5 µM)	256 µg/mL (≈ 729 µM)	32 µg/mL (≈ 91.1 µM)	32 µg/mL (≈ 91.1 µM)	8.38 ± 1.14 µM	32 µg/mL (≈ 91.1 µM)	28.4 ± 3.7 µM	64 µg/mL (≈ 182 µM)	64 µg/mL (≈ 182 µM)	3.59 ± 1.04 µM	MIC ([13]; Staphylococcus aureus, MRSA|MSSA, read-out: MIC against SE, SF, MSSA, and MRSA): 16 to 32 µg/mL (≈ 45.5 to 91.1 µM); IC50 [14]: 9.09 ± 0.511 µM; IC50 [15]: 0.623 ± 0.056 µM; inhibitory activity on VEGFR-2 relative to DHFR [15]: 15–20 times
COc1ccc(CNC(=O)c2cc(O)c3cc(OC)cc(OC)c3c2)cc1 [6a, 4-Hydroxy-6,8-dimethoxy-N-(4-methoxybenzyl)-2-naphthamide]	64 µg/mL (≈ 174 µM)	15.9 ± 1.28 µM	32 µg/mL (≈ 87.1 µM)		64 µg/mL (≈ 174 µM)	128 µg/mL (≈ 348 µM)	17.4 ± 1.51 µM	64 µg/mL (≈ 174 µM)	29.2 ± 2.65 µM	64 µg/mL (≈ 174 µM)		14.4 ± 1.62 µM	MIC ([4]; ATCC16404, 72 h, read-out: MIC, AN): 256 µg/mL (≈ 697 µM); MIC ([11]; ATCC10321, 72 h, read-out: MIC, CA): 256 µg/mL (≈ 697 µM)
COc1ccc(CNC(=O)c2cc(O)c3c(OC)cc(OC)cc3c2)cc1 [6b, 4-Hydroxy-5,7-dimethoxy-N-(4-methoxybenzyl)-2-naphthamide]	64 µg/mL (≈ 174 µM)	13.3 ± 2.69 µM	32 µg/mL (≈ 87.1 µM)	256 µg/mL (≈ 697 µM)	32 µg/mL (≈ 87.1 µM)	32 µg/mL (≈ 87.1 µM)	14 ± 1.4 µM	32 µg/mL (≈ 87.1 µM)	28.5 ± 3.29 µM	128 µg/mL (≈ 348 µM)	64 µg/mL (≈ 174 µM)	12.3 ± 2.15 µM	
COc1cc(OC)c2cc(C(=O)NCc3ccc(Br)cc3)cc(O)c2c1 [7a, N-(4-bromobenzyl)-4-hydroxy-6,8-dimethoxy-2-naphthamide]	64 µg/mL (≈ 154 µM)	19.8 ± 1.59 µM		256 µg/mL (≈ 615 µM)	64 µg/mL (≈ 154 µM)	128 µg/mL (≈ 307 µM)	16.7 ± 1.68 µM	64 µg/mL (≈ 154 µM)	23 ± 2.87 µM	64 µg/mL (≈ 154 µM)	128 µg/mL (≈ 307 µM)	18.5 ± 1.73 µM	
COc1cc(OC)c2c(O)cc(C(=O)NCc3ccc(Br)cc3)cc2c1 [7b, N-(4-bromobenzyl)-4-hydroxy-5,7-dimethoxy-2-naphthamide]	64 µg/mL (≈ 154 µM)	11.5 ± 1.61 µM	32 µg/mL (≈ 76.9 µM)	256 µg/mL (≈ 615 µM)	32 µg/mL (≈ 76.9 µM)	64 µg/mL (≈ 154 µM)	12.1 ± 1.09 µM	32 µg/mL (≈ 76.9 µM)	21.3 ± 3.04 µM	64 µg/mL (≈ 154 µM)	64 µg/mL (≈ 154 µM)	9.83 ± 1.54 µM	
COc1cc(OC)c2cc(C(=O)NCc3ccc(Cl)cc3)cc(O)c2c1 [8a, N-(4-chlorobenzyl)-4-hydroxy-6,8-dimethoxy-2-naphthamide]	64 µg/mL (≈ 172 µM)	12.4 ± 1.34 µM	32 µg/mL (≈ 86.1 µM)	256 µg/mL (≈ 689 µM)	64 µg/mL (≈ 172 µM)	128 µg/mL (≈ 344 µM)	10.1 ± 1.17 µM	64 µg/mL (≈ 172 µM)	25.4 ± 3.02 µM	64 µg/mL (≈ 172 µM)	64 µg/mL (≈ 172 µM)	8.61 ± 1.49 µM	
COc1cc(OC)c2c(O)cc(C(=O)NCc3ccc(Cl)cc3)cc2c1 [8b, N-(4-chlorobenzyl)-4-hydroxy-5,7-dimethoxy-2-naphthamide]	16 µg/mL (≈ 43 µM)	3.58 ± 1.06 µM	8 µg/mL (≈ 21.5 µM)	256 µg/mL (≈ 689 µM)	16 µg/mL (≈ 43 µM)	16 µg/mL (≈ 43 µM)	7.12 ± 1.25 µM	16 µg/mL (≈ 43 µM)	12.8 ± 2.83 µM	64 µg/mL (≈ 172 µM)	64 µg/mL (≈ 172 µM)	2.97 ± 0.98 µM	fold antibacterial activity relative to compound 5b ([13]; strains SF, SE, MSSA, and MRSA): more than 2 fold; IC50 [14]: 7.88 ± 0.442 µM; IC50 [15]: 0.384 ± 0.047 µM; inhibitory activity on VEGFR-2 relative to DHFR [15]: 15–20 times
O=C(O)c1cn(C2CC2)c2cc(N3CCNCC3)c(F)cc2c1=O [Cipro, ciprofloxacin, reference compound]	16 µg/mL (≈ 48.3 µM)		8 µg/mL (≈ 24.1 µM)		8 µg/mL (≈ 24.1 µM)	16 µg/mL (≈ 48.3 µM)		8 µg/mL (≈ 24.1 µM)		16 µg/mL (≈ 48.3 µM)			
OC(Cn1cncn1)(Cn1cncn1)c1ccc(F)cc1F [Flu, fluconazole, reference compound]				128 µg/mL (≈ 418 µM)							4 µg/mL (≈ 13.1 µM)		MIC50, Candida species ([16]; Candida albicans, glabrata, krusei, tropicalis, ref [17]): 0.25 to 2.00 µg/mL; MIC50, drug-resistant fungi [17]: > 16 µg/mL
CC(=O)O[C@H]1C(=O)[C@@]2(C)[C@H]([C@H](OC(=O)c3ccccc3)[C@]3(O)C[C@H](OC(=O)[C@H](O)[C@@H](NC(=O)c4ccccc4)c4ccccc4)C(C)=C1C3(C)C)[C@]1(OC(C)=O)CO[C@@H]1C[C@@H]2O [PTX, paclitaxel, reference compound]		2.85 ± 0.43 µM					5.75 ± 0.6 µM		7.29 ± 0.91 µM			3.96 ± 0.54 µM	
CN(C/C=C/c1ccccc1)Cc1cccc2ccccc12 [naftifine]													MIC50, Candida species [16]: 0.25 to 2.00 µg/mL

Source: PMC9494668 (ACS Omega, 2022)
